The subject of assay [1] is An. gambiae. As to the kind of experiment: Arm-in-cage test on human volunteers. Type of assay: in vivo, Anopheles gambiae. The procedure:
(§1) The Arm in the box method was adapted from the WHO Guidelines for efficacy testing of mosquito repellents for human skin (WHO/CDS/NTD/WHOPES/2009.4) and/or based on EU biocide testing guidelines (Guidance on the Biocidal Products Regulation. Vol. II Efficacy—Assessment and Evaluation (Parts B+C), v. 4.0. December 2021). The readiness of 200 hungry female mosquitoes Ae. aegypti or 50 An. gambiae to probe is assessed by inserting the untreated arm of human volunteers into the cage (40×40×40 cm) for 30 seconds (negative control) in order to determine probing activity. Then, the product is applied onto the skin of the forearm of the human volunteer (1 mL per 600 cm^2) and after 5 minutes (Ae. aegypti) or 30 minutes (An. gambiae), this arm is inserted into the cage and exposed for 3 minutes. The assay take place in temperature (27±2° C.) and humidity (80±10% RH) regulated room on three different human volunteers.

In assay [2] the test system is Ae. aegypti. As to the kind of experiment: Arm-in-cage test on human volunteers. In kind it is in vivo, Aedes aegypti. The conditions noted are these: for Arm-in-cage repellence: 20% in ethanol. The procedure: as §1
For assay [3], the system named is Aedes aegypti. Kind of assay: Warm Body assay, mosquito landings on the baited warm body. Type of assay: in vivo. The conditions noted are these: for pest or weed control at 16 µg/mL / pest or weed control at 400 µg/mL / pest or weed control at 10000 µg/mL: Aedes aegypti, read-out: Percentage of repellence of mosquitoes landing on the warm body. The procedure:
The controlling effect according to the present invention was assessed using an adapted Warm Body assay as defined in Kröber T, Kessler S, Frei J, Bourquin M, Guerin P M. 2010. J Am Mosq Control Assoc. 26:381-386. In this in-vitro assay the number of mosquito landing on a warm body, simulating an attractive host treated with the tested stimuli, was measured in order to assess the repellence effect.
The published protocol has been adapted as the switch from Anopheles gambiae to Ae. aegypti led to a decrease of mosquitoes placed in the tested cage due to the size difference (i.e. 30 mosquitoes instead of 50) and to an increase of lighting since Ae. aegypti is a diurnal mosquitoes (i.e. 150 lux instead of 4 lux).
(§2) On the sandblasted glass Petri dish covering the warm body (28.3 cm^2), 100 μL of the compounds diluted at different concentrations in ethanol was applied. The number of mosquito landing on the warm body was counted for each stimulus. Number of landings on pure ethanol (solvent) control treatment was used to normalize the data and calculate the percentage of repellence.

In assay [4] the test system is Ixodes ricinus. Kind of assay: Warm Plate Assay for ticks.
Assay [5] deals with Anopheles gambiae. Kind of assay: Warm Body assay, mosquito landings on the baited warm body. Type of assay: in vivo. The procedure: Anopheles gambiae is also a model organism as it is anthropophilic and transmits malaria.
The controlling effect according to the present invention was assessed using an adapted Warm Body assay as defined in Kröber T, Kessler S, Frei J, Bourquin M, Guerin P M. 2010. J Am Mosq Control Assoc. 26:381-386. In this in-vitro assay the number of mosquito landing on a warm body, simulating an attractive host treated with the tested stimuli, was measured in order to assess the repellence effect. […]
as §2

Where [6] appears, read: γ-lactones, 0.016 mg/mL in ethanol.
The mark [7] stands for this setting: γ-lactones, 0.4 mg/mL in ethanol.
[8] abbreviates: γ-lactones, 10 mg/mL in ethanol.

The structures appear in SMILES notation. Where two headings read alike, the source gives them in different places.

On to `CC1CCC2C(C1)OC(=O)C2C` (centres unmarked) [3,6-dimethyl-3a,4,5,6,7,7a-hexahydro-3H-1-benzofuran-2-one], for which the “mosquitoes repelled for at least 1 h” value in assay [1] (at 20%) and in assay [2] (at 20%) was > 95% throughout. The “Arm-in-cage repellence, mean of three volunteers” value in assay [1] (at 20%, 30 min) is on record as 100% ±; in assay [1] (at 20%, 1 h), 93.7% ±; in assay [1] (at 20%, 2 h), 67.05% ±; in assay [2] (at 20%, 30 min), 100% ±; in assay [2] (at 20%, 1 h) it was 99.93% ±; in assay [2] (at 20%, 2 h), 92.21% ±. Also, the “Arm-in-cage repellence, mean of three volunteers” value in assay [2] (at 20%, 3 h) is listed as 86.52% ±; in assay [2] (at 20%, 4 h) it was 66.02% ±. In addition, the pest or weed control at 16 µg/mL in assay [3] (more complex lactones (types A, B, C), 0.016 mg/mL) was found to be 0%. In assay [3] (more complex lactones (types A, B, C), 0.4 mg/mL), the pest or weed control at 400 µg/mL is 90%. In addition, in assay [3] (more complex lactones (types A, B, C), 10 mg/mL), the pest or weed control at 10000 µg/mL turned out to be 98%.

Consider `CCC=CCCC1CCC(=O)O1` (centres unmarked) [5-hex-3-enyloxolan-2-one], for which the “Percentage of repellence of ticks on the warm plate” value in assay [4] (0.40 mg/mL) worked out at 17%; in assay [4] (10 mg/mL), 100%. Further, in assay [1] (20% in ethanol), the “time during which protection is 100%, i.e. no mosquito landing” value was determined as 4 h. For the same compound, the Arm-in-cage repellence in assay [1] (20% in ethanol, 30 min post application) is on record as 100% ±; in assay [1] (20% in ethanol, 1 h post application), 100% ±; in assay [1] (20% in ethanol, 2 h post application), 100% ±; in assay [1] (20% in ethanol, 3 h post application), 100% ±; in assay [1] (20% in ethanol, 4 h post application), 100% ±; in assay [1] (20% in ethanol, 5 h post application), 97.85% ±. Besides, the Arm-in-cage repellence in assay [1] (20% in ethanol, 6 h post application) is recorded as 80.07% ±; in assay [2] (5 min post application) it was 98.5% ±; in assay [2] (1 h post application) it was 97.0% ±; in assay [2] (2 h post application) it was 93.0% ±; in assay [2] (3 h post application), 88.3% ±; in assay [2] (4 h post application), 79.5% ±. Further, the “time during which mosquito protection / repellence is >90%” value in assay [1] (20% solution in ethanol) is 5 h. For the same compound, the “Percentage of repellence of mosquitoes landing on the warm body” value (“Percentage of repellence … on the warm body” for short) in assay [5] (0.08 mg/mL) is reported as 12%; in assay [5] (0.178 mg/mL), 38%; in assay [5] (0.267 mg/mL), 95%; in assay [5] (0.598 mg/mL) it was 93%; in assay [5] (0.89 mg/mL), 100%; in assay [5] (2 mg/mL), 100%. Also, the “Percentage of repellence … on the warm body” value in assay [5] (4.47 mg/mL) and in assay [5] (10 mg/mL) was 100% in each case. In addition, the “time during which mosquito protection is >90%” value in assay [2] (20% solution in ethanol) was 2 h. The pest or weed control at 16 µg/mL in assay [3] (setting [6]) turned out to be 0%. The pest or weed control at 400 µg/mL in assay [3] (setting [7]) stood at 81%. In addition, the pest or weed control at 10000 µg/mL in assay [3] (setting [8]) came to 95%. In addition, in assay [3] (Warm Body assay, paired t-test where given), the “repellence efficacy compared with the saturated counterpart” value is “significantly higher”.

For `C=CCCCCC1CCC(=O)O1` (centres unmarked) [5-hex-5-enyloxolan-2-one], the “Percentage of repellence … on the warm body” value was 65% in assay [5] (0.08 mg/mL); 72% in assay [5] (0.178 mg/mL); 73% in assay [5] (0.267 mg/mL); 88% in assay [5] (0.598 mg/mL); 98% in assay [5] (0.89 mg/mL); 100% in assay [5] (2 mg/mL). The “Percentage of repellence … on the warm body” value in assay [5] (4.47 mg/mL) and in assay [5] (10 mg/mL) was 100% each time. In assay [3] (setting [6]), the pest or weed control at 16 µg/mL came out at 14%. In assay [3] (setting [7]), the pest or weed control at 400 µg/mL is 89%. The pest or weed control at 10000 µg/mL in assay [3] (setting [8]) came to 100%.

Regarding `CCCCCCC1CCCC(=O)O1` (centres unmarked) [6-hexyloxan-2-one], the pest or weed control at 16 µg/mL in assay [3] (δ-lactones, 0.016 mg/mL) is 0%. Further, the pest or weed control at 400 µg/mL in assay [3] (δ-lactones, 0.4 mg/mL) is 76%. Further, the pest or weed control at 10000 µg/mL in assay [3] (δ-lactones, 10 mg/mL) came to 91%.

Turning to `CCCCCC1CCCC(=O)O1` (centres unmarked) [6-pentyloxan-2-one], the pest or weed control at 16 µg/mL in assay [3] (δ-lactones, 0.016 mg/mL) is 0%. The pest or weed control at 400 µg/mL in assay [3] (δ-lactones, 0.4 mg/mL) came to 91%. The pest or weed control at 10000 µg/mL in assay [3] (δ-lactones, 10 mg/mL) was 98%.

`C=CCCC1CCCCC(=O)O1` (centres unmarked) [7-but-3-enyloxepan-2-one]: the pest or weed control at 16 µg/mL in assay [3] (β- and ε-lactones, 0.016 mg/mL) was determined as 43%. Further, the pest or weed control at 400 µg/mL in assay [3] (β- and ε-lactones, 0.4 mg/mL) was 75%. In addition, in assay [3] (β- and ε-lactones, 10 mg/mL), the pest or weed control at 10000 µg/mL amounted to 99%.

`O=C1CCCCC(C2CCCCC2)O1` (centres unmarked) [7-cyclohexyloxepan-2-one]: in assay [3] (β- and ε-lactones, 0.016 mg/mL), the pest or weed control at 16 µg/mL was 0%. The pest or weed control at 400 µg/mL in assay [3] (β- and ε-lactones, 0.4 mg/mL) stood at 10%. Also, the pest or weed control at 10000 µg/mL in assay [3] (β- and ε-lactones, 10 mg/mL) is 26%.

For the compound `C=CCCCC1CCCCC(=O)O1` (centres unmarked) [7-pent-4-enyloxepan-2-one], in assay [3] (β- and ε-lactones, 0.4 mg/mL), the pest or weed control at 400 µg/mL was 95% and the “Percentage of repellence … on the warm body” value is 95%. In assay [3] (β- and ε-lactones, 10 mg/mL), the pest or weed control at 10000 µg/mL came to 100%.

On to `CCCCCC1CCCCC(=O)O1` (centres unmarked) [7-pentyloxepan-2-one], for which, in assay [3] (β- and ε-lactones, 0.4 mg/mL), the pest or weed control at 400 µg/mL was found to be 52% and the “Percentage of repellence … on the warm body” value was found to be 52%. Besides, the pest or weed control at 10000 µg/mL in assay [3] (β- and ε-lactones, 10 mg/mL) amounted to 98%.

For `CC(C)(C)C1CCCCC(=O)O1` (centres unmarked) [7-tert-butyloxepan-2-one], the pest or weed control at 16 µg/mL in assay [3] (β- and ε-lactones, 0.016 mg/mL) came to 0%. For the same compound, the pest or weed control at 400 µg/mL in assay [3] (β- and ε-lactones, 0.4 mg/mL) amounted to 0%. In addition, the pest or weed control at 10000 µg/mL in assay [3] (β- and ε-lactones, 10 mg/mL) was determined as 66%.

Regarding `CCC=CC[C@H]1CCCC(=O)O1` [(6R)-6-pent-2-enyloxan-2-one], the pest or weed control at 16 µg/mL in assay [3] (δ-lactones, 0.016 mg/mL) is 78%. Besides, in assay [3] (δ-lactones, 0.4 mg/mL), the pest or weed control at 400 µg/mL stood at 100%. In addition, the pest or weed control at 10000 µg/mL in assay [3] (δ-lactones, 10 mg/mL) was found to be 98%.

`CCC=CC[C@@H]1CCCC(=O)O1` [(6S)-6-pent-2-enyloxan-2-one]: the pest or weed control at 16 µg/mL in assay [3] (δ-lactones, 0.016 mg/mL) was 73%. Further, in assay [3] (δ-lactones, 0.4 mg/mL), the pest or weed control at 400 µg/mL is 96%. For the same compound, in assay [3] (δ-lactones, 10 mg/mL), the pest or weed control at 10000 µg/mL was determined as 96%.

As to `C=C/C=C/C1C(=O)OC1CCCCC` (centres unmarked) [(E)-3-buta-1,3-dienyl-4-pentyloxetan-2-one], the pest or weed control at 16 µg/mL in assay [3] (β- and ε-lactones, 0.016 mg/mL) is 71%. The pest or weed control at 400 µg/mL in assay [3] (β- and ε-lactones, 0.4 mg/mL) was found to be 82%. In addition, the pest or weed control at 10000 µg/mL in assay [3] (β- and ε-lactones, 10 mg/mL) came out at 100%.

As for `C=C/C=C\C1C(=O)OC1CCCCC` (centres unmarked) [(Z)-3-buta-1,3-dienyl-4-pentyloxetan-2-one], the pest or weed control at 16 µg/mL in assay [3] (β- and ε-lactones, 0.016 mg/mL) is 64%. Further, in assay [3] (β- and ε-lactones, 0.4 mg/mL), the pest or weed control at 400 µg/mL is 87%. In assay [3] (β- and ε-lactones, 10 mg/mL), the pest or weed control at 10000 µg/mL stood at 95%.

These data come from patent US20260231939A1, “ARTHROPOD CONTROL COMPOSITIONS” (Firmenich SA, priority 2022, published 2026).
